Experimental findings from US8252790B2, “Pyrazole-3-carboxamide derivative having 5-HT2B receptor antagonist activity” (Raqualia Pharma Inc., priority 2008, dated 2012) are described below.

The subject of this assay is TNBS induced IBS model. The assay can be described thus: Colonic distension study in TNBS induced rat IBS model (pain threshold). The assay is classed as in vivo. The conditions noted are these: male SD rats, TNBS 50 mg/kg, 7 days after surgery; 10 mg/kg p.o.; FIG. 1. As to the method: [Evaluation of Therapeutic Effects on IBS in the Rat]
The pharmacological effects of the test compounds in this invention was evaluated by measuring the improvement effect against lowering of the pain threshold at colon extension stimulation in TNBS induced IBS model.
For details, please refer to the literature, Katsuyo Ohashi at al., Pharmacology, 81(2): 144-150 (2008).
The median incision was conducted under anesthesia in animals, male SD rats, 240-270 g. TNBS solution (50 mg/kg, 30% methanol) was treated at the beginning of the colon in the rats. After the treatment, the cecum is put back into the abdominal cavity. The muscle wall is then sutured. After operation the animals were housed in the normal environment, and were used for the pharmacological evaluation after 7 days from the surgery. The colon extension stimulation was used for the evaluation of the compounds, Diop L. et al., J Pharmacol Exp Ther. 302(3): 1013-22 (2002). The balloon (5 cm in length) is inserted through the anus and kept in position (tip of balloon is 5 cm from the anus). Then the balloon was progressively inflated by step of 5 mm Hg, from 0 to 70 mm Hg by using Barostat (Barostat DISTENDER II R, G & J, CANADA). The pain threshold was evaluated the pressure that corresponded to produced the first abdominal contraction (abdominal cramp: Wesselmann U et al., (1998) Neurosci Lett 246: 73-76). […]

For `Cn1nc(C(=O)NCCN2CCOCC2)cc1-c1cc2cccnc2[nH]1` [Example compound 24, 1-methyl-N-[2-(morpholin-4-yl)ethyl]-5-{1H-pyrrolo[2,3-b]pyridin-2-yl}-1H-pyrazole-3-carboxamide], the “improvement effect against lowering of the pain threshold at colon extension stimulation” value is listed as “improvement effects against lowering of the pain threshold”.
